Measurements as given in US9446061B2, “Composition containing antibiotics and lysophosphatidylcholine for boosting immunity or treatment of bacterial infections” (priority 2011, dated 2016).

Key:
[1] = tested on: CPA-CLP sepsis mouse model; assay: Effects of LPC, LPC isomers, Xigris and DW286aa on mortalities/survivabilities in CPA-CLP sepsis mouse model (SEP009); single i.v. 6 hrs after CLP; assay type: in vivo
Method: (§1) CPA is well known as an immunosuppressive agent. […] Then, the abdomen was closed following the general procedure.
(§2) Then, body weight and mortality changes were observed.
In the Sham and CLP control groups, 10 ml/kg of only sterile physiological saline was single intravenously dosed.

[2] = tested on: CPA-CLP sepsis mouse model; assay: Combination effects of LPC and antibiotics (colistin, tobramycin, fusidin) in CPA-CLP sepsis mouse model (SEP013); single i.v. 6 hrs after CLP; assay type: in vivo, ICR mice; details: mpk: LPC 5, DW286aa 5, Colistin 5, Tobra 4, Fusidin 80, LPC + Colistin 5 + 5, LPC + Tobra 5 + 4, LPC + Fusidin 5 + 80
From the text: as §1, §2

[3] = LPC, LPC18:0, LPC18:1, LPA 5 mpk, Xigris 0.4 mpk, DW286aa 10 mpk, 1st CPA treat
[4] = LPC, LPC18:0, LPC18:1, LPA 5 mpk, Xigris 0.4 mpk, DW286aa 10 mpk, 2nd CPA treat
[5] = LPC, LPC18:0, LPC18:1, LPA 5 mpk, Xigris 0.4 mpk, DW286aa 10 mpk, At CLP (day 0)
[6] = LPC, LPC18:0, LPC18:1, LPA 5 mpk, Xigris 0.4 mpk, DW286aa 10 mpk, Day 1
[7] = LPC, LPC18:0, LPC18:1, LPA 5 mpk, Xigris 0.4 mpk, DW286aa 10 mpk, Day 2
[8] = LPC, LPC18:0, LPC18:1, LPA 5 mpk, Xigris 0.4 mpk, DW286aa 10 mpk, Day 3
[9] = LPC, LPC18:0, LPC18:1, LPA 5 mpk, Xigris 0.4 mpk, DW286aa 10 mpk, Day 4
[10] = LPC, LPC18:0, LPC18:1, LPA 5 mpk, Xigris 0.4 mpk, DW286aa 10 mpk, Day 5
[11] = LPC, LPC18:0, LPC18:1, LPA 5 mpk, Xigris 0.4 mpk, DW286aa 10 mpk, Day 6
[12] = LPC, LPC18:0, LPC18:1, LPA 5 mpk, Xigris 0.4 mpk, DW286aa 10 mpk, Day 7
[13] = LPC, LPC18:0, LPC18:1, LPA 5 mpk, Xigris 0.4 mpk, DW286aa 10 mpk, Day 8
[14] = LPC, LPC18:0, LPC18:1, LPA 5 mpk, Xigris 0.4 mpk, DW286aa 10 mpk, Day 9
[15] = LPC, LPC18:0, LPC18:1, LPA 5 mpk, Xigris 0.4 mpk, DW286aa 10 mpk, Day 10
[16] = LPC, LPC18:0, LPC18:1, LPA 5 mpk, Xigris 0.4 mpk, DW286aa 10 mpk, Total
[17] = Xigris 2 mpk, DW286aa 20 mpk, 1st CPA treat
[18] = Xigris 2 mpk, DW286aa 20 mpk, 2nd CPA treat
[19] = Xigris 2 mpk, DW286aa 20 mpk, At CLP (day 0)
[20] = Xigris 2 mpk, DW286aa 20 mpk, Day 1
[21] = Xigris 2 mpk, DW286aa 20 mpk, Day 2
[22] = Xigris 2 mpk, DW286aa 20 mpk, Day 3
[23] = Xigris 2 mpk, DW286aa 20 mpk, Day 4
[24] = Xigris 2 mpk, DW286aa 20 mpk, Day 5
[25] = Xigris 2 mpk, DW286aa 20 mpk, Day 6
[26] = Xigris 2 mpk, DW286aa 20 mpk, Day 7
[27] = Xigris 2 mpk, DW286aa 20 mpk, Day 8
[28] = Xigris 2 mpk, DW286aa 20 mpk, Day 9
[29] = Xigris 2 mpk, DW286aa 20 mpk, Day 10
[30] = Xigris 2 mpk, DW286aa 20 mpk, Total

1-oleoyl-2-hydroxy-sn-glycero-3-phosphocholine [LPC18:1]
Mortalities [1, 3]: 0 | survivabilities [1, 3]: 100% | Mortalities [1, 4]: 0 | survivabilities [1, 4]: 100% | Mortalities [1, 5]: 0 | survivabilities [1, 5]: 100% | Mortalities [1, 6]: 0 | survivabilities [1, 6]: 100% | Mortalities [1, 7]: 10 | survivabilities [1, 7]: 0% | Mortalities [1, 8]: 0 | survivabilities [1, 8]: 0% | Mortalities [1, 9]: 0 | survivabilities [1, 9]: 0% | Mortalities [1, 10]: 0 | survivabilities [1, 10]: 0% | Mortalities [1, 11]: 0 | survivabilities [1, 11]: 0% | Mortalities [1, 12]: 0 | survivabilities [1, 12]: 0% | Mortalities [1, 13]: 0 | survivabilities [1, 13]: 0% | Mortalities [1, 14]: 0 | survivabilities [1, 14]: 0% | Mortalities [1, 15]: 0 | survivabilities [1, 15]: 0% | Mortalities [1, 16]: 10 | survivabilities [1, 16]: 0%

CC(=O)O[C@H]1C[C@@]2(C)[C@@H](C[C@@H](O)[C@H]3[C@@]4(C)CC[C@@H](O)[C@@H](C)[C@@H]4CC[C@@]32C)/C1=C(\CCC=C(C)C)C(=O)O [Fusidin, fusidic acid]
Mortalities ([2]; 1st CPA treat): 0 | Survivalities ([2]; 1st CPA treat): 100% | Mortalities ([2]; 2nd CPA treat): 0 | Survivalities ([2]; 2nd CPA treat): 100% | Mortalities ([2]; At CLP (day 0)): 0 | Survivalities ([2]; At CLP (day 0)): 100% | Mortalities ([2]; Day 1): 2 | Survivalities ([2]; Day 1): 80% | Mortalities ([2]; Day 2): 5 | Survivalities ([2]; Day 2): 30% | Mortalities ([2]; Day 3): 1 | Survivalities ([2]; Day 3): 20% | Mortalities ([2]; Total): 8 | Survivalities ([2]; Total): 20%

CCCCCCCCCCCCCCCCCC(=O)OC[C@@H](O)COP(=O)([O-])OCC[N+](C)(C)C [LPC18:0]
Mortalities [1, 3]: 0 | survivabilities [1, 3]: 100% | Mortalities [1, 4]: 0 | survivabilities [1, 4]: 100% | Mortalities [1, 5]: 0 | survivabilities [1, 5]: 100% | Mortalities [1, 6]: 0 | survivabilities [1, 6]: 100% | Mortalities [1, 7]: 6 | survivabilities [1, 7]: 40% | Mortalities [1, 8]: 0 | survivabilities [1, 8]: 40% | Mortalities [1, 9]: 1 | survivabilities [1, 9]: 30% | Mortalities [1, 10]: 1 | survivabilities [1, 10]: 20% | Mortalities [1, 11]: 0 | survivabilities [1, 11]: 20% | Mortalities [1, 12]: 1 | survivabilities [1, 12]: 10% | Mortalities [1, 13]: 1 | survivabilities [1, 13]: 0% | Mortalities [1, 14]: 0 | survivabilities [1, 14]: 0% | Mortalities [1, 15]: 0 | survivabilities [1, 15]: 0% | Mortalities [1, 16]: 10 | survivabilities [1, 16]: 0%

NC[C@H]1O[C@H](O[C@H]2[C@H](O)[C@@H](O[C@H]3O[C@H](CO)[C@@H](O)[C@H](N)[C@H]3O)[C@H](N)C[C@@H]2N)[C@H](N)C[C@@H]1O [Tobra, tobramycin]
Mortalities ([2]; 1st CPA treat): 0 | Survivalities ([2]; 1st CPA treat): 100% | Mortalities ([2]; 2nd CPA treat): 0 | Survivalities ([2]; 2nd CPA treat): 100% | Mortalities ([2]; At CLP (day 0)): 0 | Survivalities ([2]; At CLP (day 0)): 100% | Mortalities ([2]; Day 1): 2 | Survivalities ([2]; Day 1): 80% | Mortalities ([2]; Day 2): 5 | Survivalities ([2]; Day 2): 30% | Mortalities ([2]; Day 3): 1 | Survivalities ([2]; Day 3): 20% | Mortalities ([2]; Total): 8 | Survivalities ([2]; Total): 20%

drotrecogin alfa (activated) [Xigris, reference compound]
Mortalities [1, 3]: 0 | survivabilities [1, 3]: 100% | Mortalities [1, 4]: 0 | survivabilities [1, 4]: 100% | Mortalities [1, 5]: 0 | survivabilities [1, 5]: 100% | Mortalities [1, 6]: 3 | survivabilities [1, 6]: 70% | Mortalities [1, 7]: 4 | survivabilities [1, 7]: 30% | Mortalities [1, 8]: 2 | survivabilities [1, 8]: 10% | Mortalities [1, 9]: 0 | survivabilities [1, 9]: 10% | Mortalities [1, 10]: 0 | survivabilities [1, 10]: 10% | Mortalities [1, 11]: 0 | survivabilities [1, 11]: 10% | Mortalities [1, 12]: 0 | survivabilities [1, 12]: 10% | Mortalities [1, 13]: 1 | survivabilities [1, 13]: 0% | Mortalities [1, 14]: 0 | survivabilities [1, 14]: 0% | Mortalities [1, 15]: 0 | survivabilities [1, 15]: 0% | Mortalities [1, 16]: 10 | survivabilities [1, 16]: 0% | Mortalities [1, 17]: 0 | survivabilities [1, 17]: 100% | Mortalities [1, 18]: 0 | survivabilities [1, 18]: 100% | Mortalities [1, 19]: 0 | survivabilities [1, 19]: 100% | Mortalities [1, 20]: 0 | survivabilities [1, 20]: 100% | Mortalities [1, 21]: 5 | survivabilities [1, 21]: 50% | Mortalities [1, 22]: 1 | survivabilities [1, 22]: 40% | Mortalities [1, 23]: 3 | survivabilities [1, 23]: 10% | Mortalities [1, 24]: 0 | survivabilities [1, 24]: 10% | Mortalities [1, 25]: 0 | survivabilities [1, 25]: 10% | Mortalities [1, 26]: 0 | survivabilities [1, 26]: 10% | Mortalities [1, 27]: 1 | survivabilities [1, 27]: 0% | Mortalities [1, 28]: 0 | survivabilities [1, 28]: 0% | Mortalities [1, 29]: 0 | survivabilities [1, 29]: 0% | Mortalities [1, 30]: 10 | survivabilities [1, 30]: 0%
